The numbers were not newly measured in US9005587B2, “Anti-bacterial and mineralizing calcium phosphate compositions” (New York University, priority 2011, dated 2015), which cites them from elsewhere.

Molecules are shown by their SMILES.

The subject of this data set is bacteria. The conditions noted are these: in vitro; Rolla et al. 1975.

Turning to `F` [F−, fluoride], the “F− in solution needed to inhibit adsorption of bacteria on hydroxyapatite” value is “approximately 9,500 ppm”.
